Results on one substance are retold here after patent US11492379B2 (priority 2020, dated 2022).

In this assay the test system is icSARS-CoV-2-GFP. Format: cell-based, SARS-CoV-2.

Regarding trypsin, the syncytium formation entry is “did not trigger syncytium formation” and the “virus titers relative to controls” value was “slightly lower virus titers than controls”.
